Assay results as given in US5834461A, “Tricyclic benzazepine vasopressin antagonists” (American Cyanamid Company, priority 1997, dated 1998).

Key:
[1] = target: T1, rat kidney medullary V2 receptors (Rattus norvegicus, UniProt Q00788); test: Binding Assay to Rat Kidney Medullary V2 Receptors; details: for IC50: rat kidney medullary V2
T1 construct: Medullary tissues from rat kidneys are dissected out; from tissue; host or cells: rat kidney medulla membranes
Method in brief: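 Competition binding: [3H]AVP at 0.8 nM, test compounds from 50% DMSO, and membranes from rat kidney medulla, left 120 min on the bench. Filtration then liquid scintillation counting measured bound ligand; 1.0 μM unlabeled ligand set non-specific binding.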

[2] = target: vasopressin V1 receptor (rat liver plasma membranes) (Rattus norvegicus, UniProt P30560); test: Binding Assay to Rat Hepatic V1 Receptors; details: rat hepatic V1
Chain of vasopressin V1 receptor (rat liver plasma membranes) (P30560 whole entry): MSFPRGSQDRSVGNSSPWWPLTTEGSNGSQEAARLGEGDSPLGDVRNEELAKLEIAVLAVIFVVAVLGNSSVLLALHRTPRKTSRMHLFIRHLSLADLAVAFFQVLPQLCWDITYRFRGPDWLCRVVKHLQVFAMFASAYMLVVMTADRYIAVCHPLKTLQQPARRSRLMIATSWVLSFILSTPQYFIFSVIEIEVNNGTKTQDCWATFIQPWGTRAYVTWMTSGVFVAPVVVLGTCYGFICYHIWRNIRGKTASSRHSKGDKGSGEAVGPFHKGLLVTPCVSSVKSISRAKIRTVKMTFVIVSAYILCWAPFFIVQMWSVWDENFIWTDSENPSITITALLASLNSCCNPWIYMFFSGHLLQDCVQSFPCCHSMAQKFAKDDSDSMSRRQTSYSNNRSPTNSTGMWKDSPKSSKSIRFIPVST

vasopressin V1 = test: Vasopressin V1 Antagonist Activity in Conscious Rats (vasopressin vasopressor response); format: in vivo, rat (spontaneously hypertensive rats); set-up: Average Change: unit not given here
Method in brief: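 Conscious rats had the ventral caudal tail artery cannulated into the lower abdominal aorta under local procaine anesthesia, plus a caudal vein cannula for intravenous dosing. Pulsatile blood pressure was recorded via a Statham P23Db transducer. Vasopressor responses to vasopressin injections were measured before and after compound dosing, with percent antagonism calculated relative to the pre-drug response taken as 100%.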

vasopressin V2 = test: Vasopressin V2 Antagonist Activity in Conscious Hydrated Rats (diuretic effect); format: in vivo, normal Sprague-Dawley rats; details: AVP 0.4 μg/kg i.p.
Method in brief: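 Conscious rats were dosed orally at 0.1–100 mg/kg, and AVP 0.4 μg/kg i.p. in peanut oil followed 1 h later. Urine volume, osmolality and Na/K/Cl were compared against AVP-treated controls, with non-AVP rats as water-loading controls.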

[3] = 10 mg/kg i.v., VAS 0.01 i.u./kg, 30 min
[4] = 10 mg/kg i.v., VAS 0.05 i.u./kg, 30 min
[5] = 10 mg/kg i.v., VAS 0.1 i.u./kg, 30 min
[6] = 20 mg/kg i.v., VAS 0.01 i.u./kg, 60 min
[7] = 20 mg/kg i.v., VAS 0.01 i.u./kg, 300 min
[8] = 20 mg/kg i.v., VAS 0.05 i.u./kg, 60 min
[9] = 20 mg/kg i.v., VAS 0.05 i.u./kg, 90 min
[10] = 20 mg/kg i.v., VAS 0.05 i.u./kg, 120 min
[11] = 20 mg/kg i.v., VAS 0.05 i.u./kg, 180 min
[12] = 20 mg/kg i.v., VAS 0.05 i.u./kg, 240 min
[13] = 20 mg/kg i.v., VAS 0.05 i.u./kg, 300 min
[14] = 20 mg/kg i.v., VAS 0.1 i.u./kg, 60 min
[15] = 20 mg/kg i.v., VAS 0.1 i.u./kg, 90 min
[16] = 20 mg/kg i.v., VAS 0.1 i.u./kg, 120 min
[17] = 20 mg/kg i.v., VAS 0.1 i.u./kg, 180 min
[18] = 20 mg/kg i.v., VAS 0.1 i.u./kg, 240 min
[19] = 20 mg/kg i.v., VAS 0.1 i.u./kg, 300 min
[20] = 50 mg/kg p.o., VAS 0.01 i.u./kg, 30 min
[21] = 50 mg/kg p.o., VAS 0.01 i.u./kg, 60 min
[22] = 50 mg/kg p.o., VAS 0.01 i.u./kg, 90 min
[23] = 50 mg/kg p.o., VAS 0.01 i.u./kg, 120 min
[24] = 50 mg/kg p.o., VAS 0.01 i.u./kg, 180 min
[25] = 50 mg/kg p.o., VAS 0.01 i.u./kg, 240 min
[26] = 50 mg/kg p.o., VAS 0.02 i.u./kg, 30 min
[27] = 50 mg/kg p.o., VAS 0.02 i.u./kg, 60 min
[28] = 50 mg/kg p.o., VAS 0.02 i.u./kg, 90 min
[29] = 50 mg/kg p.o., VAS 0.02 i.u./kg, 120 min
[30] = 50 mg/kg p.o., VAS 0.02 i.u./kg, 180 min
[31] = 50 mg/kg p.o., VAS 0.02 i.u./kg, 240 min

T1 sequence (Q00788 whole entry): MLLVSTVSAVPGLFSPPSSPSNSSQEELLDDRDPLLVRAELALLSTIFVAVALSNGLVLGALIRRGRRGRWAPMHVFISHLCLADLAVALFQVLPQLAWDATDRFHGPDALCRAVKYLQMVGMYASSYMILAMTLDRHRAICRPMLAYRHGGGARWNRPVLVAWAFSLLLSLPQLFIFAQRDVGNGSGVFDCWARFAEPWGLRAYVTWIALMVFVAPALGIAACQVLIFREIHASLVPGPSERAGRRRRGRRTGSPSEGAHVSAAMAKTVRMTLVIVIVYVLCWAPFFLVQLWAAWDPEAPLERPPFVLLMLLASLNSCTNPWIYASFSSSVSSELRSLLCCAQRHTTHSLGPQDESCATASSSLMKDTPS

SMILES: Cc1ccccc1C(=O)Nc1ccc(C(=O)N2Cc3ccccc3-c3ccccc32)cc1 [Example 5, 2-Methyl-N-[4-[(5(6H)-phenanthridinyl)carbonyl]phenyl]benzamide]
- IC50 [1]: 0.029 µM
- IC50 [2]: 0.056 µM
- Average Change (vasopressin V1; [3]): 35
- Inhibition (vasopressin V1; [3]): 22%
- Average Change (vasopressin V1; [4]): 30
- Inhibition (vasopressin V1; [4]): -9%
- Average Change (vasopressin V1; [5]): 35
- Inhibition (vasopressin V1; [5]): 22%
- Average Change (vasopressin V1; [6]): 17.5
- Inhibition (vasopressin V1; [6]): 61%
- Average Change (vasopressin V1; [7]): 30
- Inhibition (vasopressin V1; [7]): 33%
- Average Change (vasopressin V1; [8]): 10
- Inhibition (vasopressin V1; [8]): 64%
- Average Change (vasopressin V1; [9]): 10
- Inhibition (vasopressin V1; [9]): 64%
- Average Change (vasopressin V1; [10]): 15
- Inhibition (vasopressin V1; [10]): 45%
- Average Change (vasopressin V1; [11]): 12.5
- Inhibition (vasopressin V1; [11]): 55%
- Average Change (vasopressin V1; [12]): 17.5
- Inhibition (vasopressin V1; [12]): 36%
- Average Change (vasopressin V1; [13]): 22.5
- Inhibition (vasopressin V1; [13]): 18%
- Average Change (vasopressin V1; [14]): 17.5
- Inhibition (vasopressin V1; [14]): 61%
- Average Change (vasopressin V1; [15]): 20
- Inhibition (vasopressin V1; [15]): 56%
- Average Change (vasopressin V1; [16]): 17.5
- Inhibition (vasopressin V1; [16]): 61%
- Average Change (vasopressin V1; [17]): 20
- Inhibition (vasopressin V1; [17]): 56%
- Average Change (vasopressin V1; [18]): 25
- Inhibition (vasopressin V1; [18]): 44%
- Average Change (vasopressin V1; [19]): 30
- Inhibition (vasopressin V1; [19]): 33%
- Average Change (vasopressin V1; [20]): 22.5
- Inhibition (vasopressin V1; [20]): 10%
- Average Change (vasopressin V1; [21]): 30
- Inhibition (vasopressin V1; [21]): -20%
- Average Change (vasopressin V1; [22]): 17.5
- Inhibition (vasopressin V1; [22]): 30%
- Average Change (vasopressin V1; [23]): 30
- Inhibition (vasopressin V1; [23]): -20%
- Average Change (vasopressin V1; [24]): 20
- Inhibition (vasopressin V1; [24]): 20%
- Average Change (vasopressin V1; [25]): 22.5
- Inhibition (vasopressin V1; [25]): 10%
- Average Change (vasopressin V1; [26]): 35
- Inhibition (vasopressin V1; [26]): 0%
- Average Change (vasopressin V1; [27]): 35.5
- Inhibition (vasopressin V1; [27]): 7%
- Average Change (vasopressin V1; [28]): 32.5
- Inhibition (vasopressin V1; [28]): 7%
- Average Change (vasopressin V1; [29]): 40
- Inhibition (vasopressin V1; [29]): -14%
- Average Change (vasopressin V1; [30]): 37.5
- Inhibition (vasopressin V1; [30]): -7%
- Average Change (vasopressin V1; [31]): 38.5
- Inhibition (vasopressin V1; [31]): -10%
- Osmolality (vasopressin V2; 10 mg/kg orally): 1137 mOsm/kg
- Urine Volume (vasopressin V2; 10 mg/kg orally): 2 ml/4 hrs.

SMILES: O=C(Nc1ccc(C(=O)N2Cc3ccccc3Sc3ccccc32)cc1)c1ccccc1Cl [Example 448, N-[4-[(Dibenz[b,f][1,4]thiazepin-10(11H)yl)-carbonyl]phenyl]-2-chlorobenzamide]
- IC50 [1]: 0.19 µM
- IC50 [2]: 0.073 µM
- MAX % Inhibition (vasopressin V1; 30 mg/kg i.v.): 60%
- Time of max % inhibition (vasopressin V1; 30 mg/kg i.v.): 90 min
- Osmolality (vasopressin V2; 30 mg/kg orally): 1084 mOsm/kg
- Urine Volume (vasopressin V2; 30 mg/kg orally): 4.8 ml/4 hrs.

SMILES: Cc1cc(C(=O)N2Cc3ccccc3Cc3ccccc32)cc(C)c1NC(=O)c1ccc(Cl)cc1Cl [Example 259, N-[4-[(6,11-Dihydro-5H-dibenz[b,e]azepin-5-yl)-carbonyl]-2,6-dimethylphenyl]-2 4-dichlorobenzamide]
- inhibition at 10 µM ([1]; 10 μM, rat kidney, read-out: V2, % at concentration in brackets): 13%
- IC50 [2]: 4 µM
- MAX % Inhibition (vasopressin V1; 30 mg/kg i.v.): 29%
- Time of max % inhibition (vasopressin V1; 30 mg/kg i.v.): 90 min
- Osmolality (vasopressin V2; 10 mg/kg orally): 1080 mOsm/kg
- Urine Volume (vasopressin V2; 10 mg/kg orally): 6 ml/4 hrs.

SMILES: O=C(Nc1ccc(C(=O)N2Cc3ccccc3Cc3ccccc32)cc1)c1cccc(Cl)c1Cl [Example 253, N-[4-[(6,11-Dihydro-5H-dibenz[b,e]azepin-5-yl)-carbonyl]phenyl]-2,3-dichlorobenzamide]
- IC50 [1]: 0.19 µM
- IC50 [2]: 0.31 µM
- MAX % Inhibition (vasopressin V1; 30 mg/kg i.v.): 57%
- Time of max % inhibition (vasopressin V1; 30 mg/kg i.v.): 180 min
- Osmolality (vasopressin V2; 10 mg/kg orally): 837 mOsm/kg
- Urine Volume (vasopressin V2; 10 mg/kg orally): 6 ml/4 hrs.

SMILES: Cc1ccccc1C(=O)Nc1ccc(C(=O)N2Cc3ccccc3Cc3ccccc32)cc1 [Example 2, N-[4-[(6,11-Dihydro-5H-dibenz[b,e]azepin-5-yl)carbonyl]phenyl]-2-methylbenzamide]
- IC50 [1]: 0.068 µM
- IC50 [2]: 0.15 µM
- MAX % Inhibition (vasopressin V1; 10 mg/kg p.o.): 65%
- Time of max % inhibition (vasopressin V1; 10 mg/kg p.o.): 180 min
- Osmolality (vasopressin V2; 3 mg/kg orally): 1235 ± 162 mOsm/kg
- Urine Volume (vasopressin V2; 3 mg/kg orally): 2.9 ± 0.5 ml/4 hrs.
- Osmolality (vasopressin V2; 10 mg/kg orally): 408 ± 34 mOsm/kg
- Urine Volume (vasopressin V2; 10 mg/kg orally): 15.2 ± 2.4 ml/4 hrs.
- Osmolality (vasopressin V2; 30 mg/kg orally): 401 ± 49 mOsm/kg
- Urine Volume (vasopressin V2; 30 mg/kg orally): 18.9 ± 1.7 ml/4 hrs.
